{"source": "patent US20250186405A1", "about": "“Compound For Use In Treating Narcolepsy” (Alkermes, Inc., priority 2023, published 2025)", "system": "subjects with narcolepsy type-1 (NT1)", "experiment": "Part 4 POC NT1: treatment-emergent adverse events, single doses, crossover", "type": "in vivo, human", "method": "Subjects were randomized to 1 of 4 sequences.\nEach subject received three doses of Compound A, including 1, 3, and 8 mg, and a single dose of placebo. […] All subjects underwent the washout period and completed all 4-way randomized crossover periods.\nWith one exception, each subject received three doses of Compound A, including 1, 3, and 8 mg, and a single dose of placebo. One patient withdrew from the study after the first dose due to venous access complications. […] With the exception of one patient as noted above, all subjects underwent the washout period and completed all 4-way randomized crossover periods.", "note": "Where “and” joins values, the source holds several entries; their conditions need not be identical. Identical values can stand only once.", "data": [{"smiles": "CS(=O)(=O)N[C@H]1CCCN2C(=O)COc3ccccc3C3CCC(CC3)OCC12", "note": "(stereo partly drawn) [Compound A, N-[(4S,4aR,7α,10α)-1,2,3,4,4a,5,7,8,9,10,16,17-dodecahydro-17-oxo-7,10-ethanopyrido[1,2-d][1,7,4]benzodioxaazacyclotridecin-4-yl]methanesulfonamide]", "values": [{"measurement": "TEAE by Highest Relationship: Related", "setting": "3 mg (N = 9)", "result": "3 (33.3) n (%)"}, {"measurement": "TEAE by Highest Severity: Mild", "setting": "3 mg (N = 9)", "result": "5 (55.6) n (%)"}, {"measurement": "TEAE by Highest Severity: Moderate", "setting": "3 mg (N = 9)", "result": "0 n (%)"}, {"measurement": "TEAE by Highest Severity: Severe", "setting": "3 mg (N = 9)", "result": "0 n (%)"}, {"measurement": "AE Leading to Study Drug Discontinuation", "setting": "8 mg (N = 4)", "result": "0 n (%)"}, {"measurement": "Any SAEs", "setting": "8 mg (N = 4)", "result": "0 n (%)"}, {"measurement": "Any TEAE", "setting": "8 mg (N = 4)", "result": "4 (100) n (%) and 4 n (%)"}, {"measurement": "Death", "setting": "8 mg (N = 4)", "result": "0 n (%)"}, {"measurement": "TEAE Anaemia", "setting": "8 mg (N = 4)", "result": "0 n (%)"}, {"measurement": "TEAE Application site dermatitis", "setting": "8 mg (N = 4)", "result": "1 n (%)"}, {"measurement": "TEAE Blood pressure increased", "setting": "8 mg (N = 4)", "result": "1 n (%)"}, {"measurement": "TEAE Bruxism", "setting": "8 mg (N = 4)", "result": "1 n (%)"}, {"measurement": "TEAE Dermatitis contact", "setting": "8 mg (N = 4)", "result": "0 n (%)"}, {"measurement": "TEAE Dizziness", "setting": "8 mg (N = 4)", "result": "1 n (%)"}, {"measurement": "TEAE Hyperhidrosis", "setting": "8 mg (N = 4)", "result": "1 n (%)"}, {"measurement": "TEAE Hyperlipidaemia", "setting": "8 mg (N = 4)", "result": "0 n (%)"}, {"measurement": "TEAE Insomnia", "setting": "8 mg (N = 4)", "result": "3 n (%)"}, {"measurement": "TEAE Pollakiuria", "setting": "8 mg (N = 4)", "result": "2 n (%)"}, {"measurement": "TEAE Procedural anxiety", "setting": "8 mg (N = 4)", "result": "0 n (%)"}, {"measurement": "TEAE Salivary hypersecretion", "setting": "8 mg (N = 4)", "result": "2 n (%)"}, {"measurement": "TEAE Vascular access site injury", "setting": "8 mg (N = 4)", "result": "0 n (%)"}, {"measurement": "TEAE Vessel puncture site bruise", "setting": "8 mg (N = 4)", "result": "0 n (%)"}, {"measurement": "TEAE by Highest Relationship: Not Related", "setting": "8 mg (N = 4)", "result": "0 n (%)"}, {"measurement": "TEAE by Highest Relationship: Related", "setting": "8 mg (N = 4)", "result": "4 (100) n (%)"}, {"measurement": "TEAE by Highest Severity: Mild", "setting": "8 mg (N = 4)", "result": "4 (100) n (%)"}, {"measurement": "TEAE by Highest Severity: Moderate", "setting": "8 mg (N = 4)", "result": "0 n (%)"}, {"measurement": "TEAE by Highest Severity: Severe", "setting": "8 mg (N = 4)", "result": "0 n (%)"}, {"measurement": "AE Leading to Study Drug Discontinuation", "setting": "8 mg (N = 10)", "result": "0 n (%)"}, {"measurement": "Any SAEs", "setting": "8 mg (N = 10)", "result": "0 n (%)"}, {"measurement": "Any TEAE", "setting": "8 mg (N = 10)", "result": "9 (90.0) n (%)"}, {"measurement": "Death", "setting": "8 mg (N = 10)", "result": "0 n (%)"}, {"measurement": "TEAE Anaemia", "setting": "8 mg (N = 10)", "result": "0 n (%)"}, {"measurement": "TEAE Application site dermatitis", "setting": "8 mg (N = 10)", "result": "1 (10.0) n (%)"}, {"measurement": "TEAE Back pain", "setting": "8 mg (N = 10)", "result": "1 (10.0) n (%)"}, {"measurement": "TEAE Blood pressure increased", "setting": "8 mg (N = 10)", "result": "1 (10.0) n (%)"}, {"measurement": "TEAE Bruxism", "setting": "8 mg (N = 10)", "result": "1 (10.0) n (%)"}, {"measurement": "TEAE Decreased appetite", "setting": "8 mg (N = 10)", "result": "1 (10.0) n (%)"}, {"measurement": "TEAE Dehydration", "setting": "8 mg (N = 10)", "result": "0 n (%)"}, {"measurement": "TEAE Dermatitis contact", "setting": "8 mg (N = 10)", "result": "0 n (%)"}, {"measurement": "TEAE Dizziness", "setting": "8 mg (N = 10)", "result": "2 (20.0) n (%)"}, {"measurement": "TEAE Haemoglobin decreased", "setting": "8 mg (N = 10)", "result": "1 (10.0) n (%)"}, {"measurement": "TEAE Headache", "setting": "8 mg (N = 10)", "result": "0 n (%)"}, {"measurement": "TEAE Hyperhidrosis", "setting": "8 mg (N = 10)", "result": "1 (10.0) n (%)"}, {"measurement": "TEAE Hyperlipdaemia", "setting": "8 mg (N = 10)", "result": "0 n (%)"}, {"measurement": "TEAE Insomnia", "setting": "8 mg (N = 10)", "result": "3 (30.0) n (%)"}, {"measurement": "TEAE Middle Insomnia", "setting": "8 mg (N = 10)", "result": "3 (30.0) n (%)"}, {"measurement": "TEAE Nausea", "setting": "8 mg (N = 10)", "result": "2 (20.0) n (%)"}, {"measurement": "TEAE Pollakiuria", "setting": "8 mg (N = 10)", "result": "4 (40.0) n (%)"}, {"measurement": "TEAE Salivary hypersecretion", "setting": "8 mg (N = 10)", "result": "3 (30.0) n (%)"}, {"measurement": "TEAE Sinus tachycardia", "setting": "8 mg (N = 10)", "result": "1 (10.0) n (%)"}, {"measurement": "TEAE Vascular access site injury", "setting": "8 mg (N = 10)", "result": "0 n (%)"}, {"measurement": "TEAE Vessel puncture site bruise", "setting": "8 mg (N = 10)", "result": "2 (20.0) n (%)"}, {"measurement": "TEAE Vessel puncture site pain", "setting": "8 mg (N = 10)", "result": "2 (20.0) n (%)"}, {"measurement": "TEAE by Highest Relationship: Not Related", "setting": "8 mg (N = 10)", "result": "0 n (%)"}, {"measurement": "TEAE by Highest Relationship: Related", "setting": "8 mg (N = 10)", "result": "9 (90.0) n (%)"}, {"measurement": "TEAE by Highest Severity: Mild", "setting": "8 mg (N = 10)", "result": "8 (80.0) n (%)"}, {"measurement": "TEAE by Highest Severity: Moderate", "setting": "8 mg (N = 10)", "result": "1 (10.0) n (%)"}, {"measurement": "TEAE by Highest Severity: Severe", "setting": "8 mg (N = 10)", "result": "0 n (%)"}, {"measurement": "Tolerability", "setting": "NT1, 1, 3 and 8 mg", "result": "well tolerated"}, {"measurement": "AE Leading to Study Drug Discontinuation", "setting": "Total (N = 4)", "result": "0 n (%)"}, {"measurement": "Any SAEs", "setting": "Total (N = 4)", "result": "0 n (%)"}, {"measurement": "Any TEAE", "setting": "Total (N = 4)", "result": "4 (100) n (%) and 4 n (%)"}, {"measurement": "Death", "setting": "Total (N = 4)", "result": "0 n (%)"}, {"measurement": "TEAE Anaemia", "setting": "Total (N = 4)", "result": "0 n (%)"}, {"measurement": "TEAE Application site dermatitis", "setting": "Total (N = 4)", "result": "2 n (%)"}, {"measurement": "TEAE Blood pressure increased", "setting": "Total (N = 4)", "result": "1 n (%)"}, {"measurement": "TEAE Bruxism", "setting": "Total (N = 4)", "result": "1 n (%)"}, {"measurement": "TEAE Dermatitis contact", "setting": "Total (N = 4)", "result": "1 n (%)"}, {"measurement": "TEAE Dizziness", "setting": "Total (N = 4)", "result": "1 n (%)"}, {"measurement": "TEAE Hyperhidrosis", "setting": "Total (N = 4)", "result": "1 n (%)"}, {"measurement": "TEAE Hyperlipidaemia", "setting": "Total (N = 4)", "result": "0 n (%)"}, {"measurement": "TEAE Insomnia", "setting": "Total (N = 4)", "result": "3 n (%)"}, {"measurement": "TEAE Pollakiuria", "setting": "Total (N = 4)", "result": "2 n (%)"}, {"measurement": "TEAE Procedural anxiety", "setting": "Total (N = 4)", "result": "1 n (%)"}, {"measurement": "TEAE Salivary hypersecretion", "setting": "Total (N = 4)", "result": "2 n (%)"}, {"measurement": "TEAE Vascular access site injury", "setting": "Total (N = 4)", "result": "1 n (%)"}, {"measurement": "TEAE Vessel puncture site bruise", "setting": "Total (N = 4)", "result": "1 n (%)"}, {"measurement": "TEAE by Highest Relationship: Not Related", "setting": "Total (N = 4)", "result": "0 n (%)"}, {"measurement": "TEAE by Highest Relationship: Related", "setting": "Total (N = 4)", "result": "4 (100) n (%)"}, {"measurement": "TEAE by Highest Severity: Mild", "setting": "Total (N = 4)", "result": "4 (100) n (%)"}, {"measurement": "TEAE by Highest Severity: Moderate", "setting": "Total (N = 4)", "result": "0 n (%)"}, {"measurement": "TEAE by Highest Severity: Severe", "setting": "Total (N = 4)", "result": "0 n (%)"}, {"measurement": "Any TEAE", "setting": "Total (N = 10)", "result": "9 (90.0) n (%)"}, {"measurement": "TEAE Anaemia", "setting": "Total (N = 10)", "result": "0 n (%)"}, {"measurement": "TEAE Application site dermatitis", "setting": "Total (N = 10)", "result": "2 (20.0) n (%)"}, {"measurement": "TEAE Back pain", "setting": "Total (N = 10)", "result": "1 (10.0) n (%)"}, {"measurement": "TEAE Blood pressure increased", "setting": "Total (N = 10)", "result": "1 (10.0) n (%)"}, {"measurement": "TEAE Bruxism", "setting": "Total (N = 10)", "result": "1 (10.0) n (%)"}, {"measurement": "TEAE Decreased appetite", "setting": "Total (N = 10)", "result": "2 (20.0) n (%)"}, {"measurement": "TEAE Dehydration", "setting": "Total (N = 10)", "result": "1 (10.0) n (%)"}, {"measurement": "TEAE Dermatitis contact", "setting": "Total (N = 10)", "result": "2 (20.0) n (%)"}, {"measurement": "TEAE Dizziness", "setting": "Total (N = 10)", "result": "2 (20.0) n (%)"}, {"measurement": "TEAE Haemoglobin decreased", "setting": "Total (N = 10)", "result": "1 (10.0) n (%)"}, {"measurement": "TEAE Headache", "setting": "Total (N = 10)", "result": "0 n (%)"}, {"measurement": "TEAE Hyperhidrosis", "setting": "Total (N = 10)", "result": "1 (10.0) n (%)"}, {"measurement": "TEAE Hyperlipdaemia", "setting": "Total (N = 10)", "result": "0 n (%)"}, {"measurement": "TEAE Insomnia", "setting": "Total (N = 10)", "result": "3 (30.0) n (%)"}, {"measurement": "TEAE Middle Insomnia", "setting": "Total (N = 10)", "result": "3 (30.0) n (%)"}, {"measurement": "TEAE Nausea", "setting": "Total (N = 10)", "result": "2 (20.0) n (%)"}, {"measurement": "TEAE Pollakiuria", "setting": "Total (N = 10)", "result": "4 (40.0) n (%)"}, {"measurement": "TEAE Salivary hypersecretion", "setting": "Total (N = 10)", "result": "3 (30.0) n (%)"}, {"measurement": "TEAE Sinus tachycardia", "setting": "Total (N = 10)", "result": "1 (10.0) n (%)"}, {"measurement": "TEAE Vascular access site injury", "setting": "Total (N = 10)", "result": "1 (10.0) n (%)"}, {"measurement": "TEAE Vessel puncture site bruise", "setting": "Total (N = 10)", "result": "3 (30.0) n (%)"}, {"measurement": "TEAE Vessel puncture site pain", "setting": "Total (N = 10)", "result": "2 (20.0) n (%)"}]}]}
